Data as given in patent US5849731A, “Indole derivatives and medical application thereof” (Toray Industries, Inc., priority 1995, dated 1998).
Where two headings read alike, the source gives them in different places.

Tests used:
[1] = biological target: T1, δ-opioid (Mus musculus, UniProt P32300); experiment: δ-opioid antagonism against DPDPE in mouse vas deferens (MVD); assay type: biochemical, mouse (male ddy strain); conditions: for pA2: MVD, 100 nM sample compound added 20 minutes before cumulative DPDPE, Schild method
T1 construct: Each of the vas deferens isolated from the mice was hung in a Magnus tube; from tissue; host or cells: isolated vas deferens of male ddy strain mice
T1 sequence (P32300 whole entry): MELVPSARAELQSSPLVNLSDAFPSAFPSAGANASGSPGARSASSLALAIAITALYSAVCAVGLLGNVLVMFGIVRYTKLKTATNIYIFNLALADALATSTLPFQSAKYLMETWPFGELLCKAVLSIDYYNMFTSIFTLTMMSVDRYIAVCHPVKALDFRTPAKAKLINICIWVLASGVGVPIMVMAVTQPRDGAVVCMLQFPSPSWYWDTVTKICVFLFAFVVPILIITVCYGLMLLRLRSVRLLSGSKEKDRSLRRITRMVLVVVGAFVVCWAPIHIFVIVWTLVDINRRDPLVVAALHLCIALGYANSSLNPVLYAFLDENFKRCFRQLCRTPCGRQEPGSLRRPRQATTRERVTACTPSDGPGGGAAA
Procedure: (§1) Using mouse vas deferens (MVD), antagonistic compounds were examined for antagonism against a δ-opioid agonist DPDPE, and agonistic compounds were examined for inhibitory activity against MVD contraction by electric stimulation, and for antagonism by a δ-opioid antagonist NTI.
(§2) Male ddy strain mice were used in this experiment. Each of the vas deferens isolated from the mice was hung in a Magnus tube which was filled with a Krebes-Henseleit solution (NaCl […]; KCl 4.7 mM; CaCl2 2.5 mM; KH2 PO4 1.1 mM; NaHCO3 25 mM; glucose 11 mM), and aerated with a gas of 5% carbon dioxide and 95% oxygen and maintained at 37° C. Electric stimulation was applied through upper and lower ring-shaped platinum electrodes at 0.1 Hz and 5.0 mS. Tissue contraction was recorded on a polygraph using an isometric transducer.
Initially, DPDPE was added in a cumulative manner to determine the IC50 value (concentration for 50% inhibition of contraction induced by electric stimulation). Next, 100 nM of a sample compound was added to the system beforehand, and 20 minutes later, DPDPE was added in a cumulative manner. According to the above procedure, the ratio of the IC50 value of DPDPE in the presence of the sample compound to that in the absence of it was determined, and the pA2 value was calculated in accordance with the Schild, et al.'s method [Schild, H. O., Br. J. Pharamacol. Chamother. 4, 277 (1949)].

[2] = tested on: capsaicin-induced cough; experiment: Antitussive action in rat, capsaicin-induced cough; assay type: in vivo; conditions: ip, 0.5 h, dosage for 50% cough inhibition, intraperitoneal, 10% DMSO solution, 30 minutes after administration
Procedure: Evaluation of Antitussive Action in Rat as a Model for Capsaicin-Induced Cough
Cough was induced by forcing rats to inhale capsaicin (60 μM) which was nebulized by an ultrasonic nebulizer, and fed to caps over the rats' heads through silicone tubes by a respirator. Capsaicin was fed for inhalation at a rate of 70 times/min. and 10 ml each time.
Two hundred and seventy minutes before the drug administration, capsaicin was inhaled for 5 minutes, and inducement of coughing was confirmed during this period. Thirty minutes after the drug administration, capsaicin was inhaled for 5 minutes, and the number of induced coughs during capsaicin inhalation was counted. Antitussive effect was evaluated by determining an inhibitory ratio, namely, the ratio of the number of coughs after the drug administration to that before the drug administration. Capsaicin was dissolved in saline. Each drug was dissolved in a 10% DMSO solution and intraperitoneally administered. The effect of the drug is expressed with an ED50 value which is the dosage for 50% cough inhibition

[3] = biological target: T1, δ-opioid; experiment: δ-opioid agonism: inhibition of electrically stimulated mouse vas deferens (MVD) contraction, antagonism by NTI; assay type: biochemical, mouse (male ddy strain); design: Ke: unit not given here; conditions: for Ke: against NTI added 20 minutes before, Ke=[NTI Concentration]/[(IC50 ratio)-1]
Procedure: as §1, §2
Initially, a sample compound was added in a cumulative manner to determine the IC50 value (concentration for 50% inhibition of contraction induced by electric stimulation). Next, […] was added to the system beforehand, and 20 minutes later, the sample compound was added in a cumulative manner. According to the above procedure, the ratio of the IC50 values of the sample compound in the presence of NTI to that in the absence of NTI was determined, and the Ke value was calculated in accordance with the following equation.
Ke=[NTI Concentration]/[(IC50 ratio)-1]

[4] = tested on: acetic acid writhing; experiment: Analgesic action, acetic acid writhing test in mouse; assay type: in vivo, mouse (ddY strain); conditions: sc, dorsal-subcutaneous, 15 minutes before acetic acid, writhing reactions over 10 minutes
Procedure: Evaluation of Analgesic Action by Acetic Acid Writhing Test in Mouse
Five-week-old ddY strain mice were subjected to this experiment. A 0.6% acetic acid solution was intraperitoneally administered at a volume of 0.1 ml/10 g·.body weight. Analgesic activity was evaluated with an index which was the number of writhing reactions occurring over 10 minutes from 10 minutes after administration. The drug to be evaluated was dorsal-subcutaneously administered 15 minutes before the administration of acetic acid.

**Q.** With `Oc1ccc2c3c1O[C@H]1c4c(c5ccc6cccc7c6c5n4CC7)C[C@@]4(O)[C@@H](C2)N(CC2CC2)CC[C@]314` [Compound 2, 17-cyclopropylmethyl-6,7-didehydro-4,5α-epoxy-3,14β-dihydroxy-1',3"-ethylene-6',7'-benzo-6,7,2',3'-indolomorphinan] as the compound, how does the Kb [1] read?
**A.** 2 nM

**Q.** And the ED50 [2]?
**A.** 0.00171 mg/kg

**Q.** Which results are given for `Oc1ccc2c3c1O[C@H]1c4c(c5cccc6c5n4Cc4ccccc4-6)C[C@@]4(O)[C@@H](C2)N(CC2CC2)CC[C@]314` [Compound 3, 17-cyclopropylmethyl-6,7-didehydro-4,5α-epoxy-3,14β-dihydroxy-1',7'-(2",3"-benzotrimethylene)-6,7,2',3'-indolomorphinan]?
**A.** Kb [1]: 2.51 nM; ED50 [2]: 0.00437 mg/kg

**Q.** What does the source list for `Oc1ccc2c3c1O[C@H]1c4c(c5cccc6c5n4CCC6)C[C@@]4(O)[C@@H](C2)N(CC2CC2)CC[C@]314` [Compound 4, 17-cyclopropylmethyl-6,7-didehydro-4,5α-epoxy-3,14β-dihydroxy-1',7'-trimethylene-6,7,2',3'-indolomorphinan]?
**A.** Kb [1]: 0.398 nM; ED50 [2]: 0.00858 mg/kg

**Q.** For `Cc1ccc2c3c1c1c(n3CCC2)[C@@H]2Oc3c(O)ccc4c3[C@@]23CCN(CC2CC2)[C@H](C4)[C@]3(O)C1` [Compound 5, 17-cyclopropylmethyl-6,7-didehydro-4,5α-epoxy-3,14β-dihydroxy-1',7'-trimethylene-4'-methyl-6,7,2',3'-indolomorphinan], which Kb [1] is on record?
**A.** 5.01 nM

**Q.** And the ED50 [2]?
**A.** 0.0208 mg/kg

**Q.** For `COc1ccc2c3c(n4c2c1CCC4)[C@@H]1Oc2c(O)ccc4c2[C@@]12CCN(CC1CC1)[C@H](C4)[C@]2(O)C3` [Compound 6, 17-cyclopropylmethyl-6,7-didehydro-4,5α-epoxy-3,14β-dihydroxy-1',7'-trimethylene-6'-methoxy-6,7,2',3'-indolomorphinan], which Kb [1] is on record?
**A.** 3.16 nM

**Q.** What about the ED50 [2] of the same compound?
**A.** 0.00943 mg/kg

**Q.** For `Cc1cc2c3c(c1)c1c(n3CCC2)[C@@H]2Oc3c(O)ccc4c3[C@@]23CCN(CC2CC2)[C@H](C4)[C@]3(O)C1` [Compound 7, 17-cyclopropylmethyl-6,7-didehydro-4,5α-epoxy-3,14β-dihydroxy-1',7'-trimethylene-5'-methyl-6,7,2',3'-indolomorphinan], which Kb [1] is on record?
**A.** 5.01 nM

**Q.** What about the ED50 [2] of the same compound?
**A.** 0.0163 mg/kg

**Q.** `Oc1ccc2c3c1O[C@H]1c4c(c5cccc6c5n4CCCC6)C[C@@]4(O)[C@@H](C2)N(CC2CC2)CC[C@]314` [Compound 9, 17-cyclopropylmethyl-6,7-didehydro-4,5α-epoxy-3,14β-dihydroxy-1',7'-tetramethylene-6,7,2',3'-indolomorphinan] was tested. Which pA2 [1] did it give?
**A.** 8.5

**Q.** And the ED50 [2]?
**A.** 0.0123 mg/kg

**Q.** `Oc1ccc2c3c1O[C@H]1c4c(c5cc(F)cc6c5n4CCC6)C[C@@]4(O)[C@@H](C2)N(CC2CC2)CC[C@]314` [Compound 10, 17-cyclopropylmethyl-6,7-didehydro-4,5α-epoxy-3,14β-dihydroxy-1',7'-trimethylene-5'-fluoro-6,7,2',3'-indolomorphinan] was tested. Which Kb [1] did it give?
**A.** 1.58 nM

**Q.** What about the ED50 [2] of the same compound?
**A.** 0.0157 mg/kg

**Q.** Which pA2 [1] does the source give for `COc1ccc2c3c1O[C@H]1c4c(c5cccc6c5n4CCC6)C[C@@]4(O)[C@@H](C2)N(CC2CC2)CC[C@]314` [Compound 11, 17-Cyclopropylmethyl-6,7-didehydro-4,5α-epoxy-3-methoxy-14β-hydroxy-1',7'-trimethylene-6,7,2',3'-indolomorphinan] here?
**A.** 8.2

**Q.** What about the ED50 [2] of the same compound?
**A.** 0.00343 mg/kg

**Q.** With `C=CCCN1CC[C@]23c4c5ccc(O)c4O[C@H]2c2c(c4cccc6c4n2CCC6)C[C@@]3(O)[C@H]1C5` [Compound 28, 17-(3-butenyl)-6,7-didehydro-4,5α-epoxy-3,14β-dihydroxy-1',7'-trimethylene-6,7,2',3'-indolomorphinan] as the compound, how does the IC50 [3] read?
**A.** 15.8 nM

**Q.** What about the Ke [3] of the same compound?
**A.** 0.05

**Q.** What about the ED50 [4] of the same compound?
**A.** 16.7 mg/kg

**Q.** How did the IC50 [3] turn out when `CN1CC[C@]23c4c5ccc(O)c4O[C@H]2c2c(c4cccc6c4n2CCC6)C[C@@]3(O)[C@H]1C5` [Compound 55, 17-Methyl-6,7-didehydro-4,5α-epoxy-3,14β-dihydroxy-1',7'-trimethylene-6,7,2',3'-indolomorphinan] was run?
**A.** 18.2 nM

**Q.** What about the Ke [3] of the same compound?
**A.** 0.21

**Q.** With `Oc1ccc2c3c1O[C@H]1c4c(c5cccc6c5n4CCC6)C[C@@]4(O)[C@@H](C2)N(CC2CCC2)CC[C@]314` [Compound 56, 17-cyclobutylmethyl-6,7-didehydro-4,5α-epoxy-3,14β-dihydroxy-1',7'-trimethylene-6,7,2',3'-indolomorphinan] as the compound, how does the IC50 [3] read?
**A.** 2.96 nM

**Q.** What about the Ke [3] of the same compound?
**A.** 6.21

**Q.** What does the source list for `Oc1ccc2c3c1O[C@H]1c4c(c5cccc6c5n4CCC6)C[C@@]4(O)[C@@H](C2)N(CCc2ccccc2)CC[C@]314` [Compound 57, 17-phenethyl-6,7-didehydro-4,5α-epoxy-3,14β-dihydroxy-1',7'-trimethylene-6,7,2',3'-indolomorphinan]?
**A.** Ke [3]: 0.06; IC50 ([3]; concentration for 50% inhibition of MVD contraction induced by electric stimulation): 9.71 nM

**Q.** Which IC50 [3] does the source give for `Oc1ccc2c3c1O[C@H]1c4c(c5cccc6c5n4CCC6)C[C@@]4(O)[C@@H](C2)N(CCc2cccs2)CC[C@]314` [Compound 65, 17-(thiophene-2-ylethyl)-6,7-didehydro-4,5α-epoxy-3,14β-dihydroxy-1',7'-trimethylene-6,7,2',3'-indolomorphinan] here?
**A.** 33.9 nM

**Q.** What about the Ke [3] of the same compound?
**A.** 0.03
